From patent US20250382274A1, “COMPOSITIONS AND METHODS FOR THE TREATMENT OF PARKINSON'S AND GAUCHER DISEASE” (CHILDREN'S HOSPITAL MEDICAL CENTER, priority 2024, published 2025)

Key:
[1] = target: T1, GCase (purified enzyme, Velaglucerase alfa, VPRIV) (Homo sapiens, UniProt P04062); assay: GCase AC50 enzyme activity assay; assay type: biochemical; conditions: pH 5.6, 4-MuGlu substrate, compounds 0-40 μM
T1 construct: purchased Shire Human Genetic Therapies, Cambridge, MA
T1 sequence (P04062 40-536): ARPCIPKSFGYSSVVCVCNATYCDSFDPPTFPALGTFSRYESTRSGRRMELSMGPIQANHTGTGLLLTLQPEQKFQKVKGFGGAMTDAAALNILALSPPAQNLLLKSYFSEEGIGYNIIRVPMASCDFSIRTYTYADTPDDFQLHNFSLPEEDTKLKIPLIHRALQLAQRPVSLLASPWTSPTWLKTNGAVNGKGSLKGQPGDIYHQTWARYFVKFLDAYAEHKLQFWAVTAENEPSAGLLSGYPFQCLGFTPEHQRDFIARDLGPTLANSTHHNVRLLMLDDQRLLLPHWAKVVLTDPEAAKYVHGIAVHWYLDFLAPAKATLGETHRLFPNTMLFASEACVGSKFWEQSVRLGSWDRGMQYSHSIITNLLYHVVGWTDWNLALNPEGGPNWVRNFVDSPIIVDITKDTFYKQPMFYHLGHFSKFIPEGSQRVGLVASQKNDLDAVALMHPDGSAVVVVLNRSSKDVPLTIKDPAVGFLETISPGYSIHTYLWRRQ
Description: An in vitro enzyme assay was performed through a dose response curve of Compounds (0-40 μM) with purified enzyme (Velaglucerase alfa, VPRIV®, Shire Human Genetic Therapies, Cambridge, MA) in citric phosphate [0.025 mM] buffer (pH 5.6) where 4-MuGlu [4 mM] was the substrate. Compounds were pre-incubated with the enzyme for 40 minutes at room temperature prior to substrate addition, and then incubated at 37° C. for 1 hour. AC50 represents the concentration of a Compound that produces 50% of its maximal response in the in vitro GCase activity assay.
(§1) GCase activities were determined fluorometrically with 4-MuGlu. The relative fluorescence unit (RFU) of 4-MuGlu standard curve is generated with the plate reader (M5, Molecular Devise) as 1 n mole=56500 RFU. The human mutant Gaucher fibroblasts were purchased from Coriell Institute (Camden, NJ): N370/ΔGG (Cat #: GM00852) and L444P/L444P (cat #: GM00877)

[2] = target: T2, GCase in healthy human fibroblasts (Homo sapiens, UniProt P04062); assay: EC50 cell-based assay for GCase, healthy human fibroblasts (GCase cell); conditions: 5 days compound treatment (0-20 μM)
T2 construct: Healthy human fibroblasts (GCase cell); endogenous in cells; host or cells: healthy human fibroblasts
T2 sequence (P04062 40-536): T1 sequence (P04062 40-536)
Description: In cell assays, GCase activity measurements were carried out on harvested cell pellets on the 5th day of Compound treatment. Healthy human fibroblasts (GCase cell), mutant N370/ΔGG (GCase N370S) or L444P/L444P (GCase L444P) were incubated with the Compound (0-20 μM) for 5 days with 15% fetal bovine serum (FBS) in Dulbecco's Modified Eagle Medium (DMEM) in 100 mm culture dishes. Fresh Medium with Compound were replaced every other day. On the 5th day of Compound treatment, harvested cell pellets were lysed with 1% Na-taurocholate (Tc) and 1% Triton X-100 (Tx), and mixed with the reaction buffer which contained 0.025 mM Citric phosphate buffer (pH 5.6), 0.25% Tc/Tx and 4 mM 4-MuGlu, then incubated at 37° C. for 1 hour. EC50 represents the concentration of a Compound that produces 50% of its maximal response in the cell-based GCase activity assay.
as §1

SMILES | AC50 [1] [µM] | EC50 [2] [µM]
CC(C)(Oc1ccc(F)cc1C(=O)NCC1CCO1)C(=O)Nc1ccc(OC(F)F)cc1 (stereo not drawn) [Compound 31, 2-((1-((4-(difluoromethoxy)phenyl)amino)-2-methyl-1-oxopropan-2-yl)oxy)-5-fluoro-N-(oxetan-2-ylmethyl)benzamide] | < 10 | –
CC(C)(Oc1ccc(F)cc1C(=O)NCC1CCO1)C(=O)NC1CCC(F)(F)CC1 (stereo not drawn) [Compound 38, 2-[2-[(4,4-difluorocyclohexyl)amino]-1,1-dimethyl-2-oxo-ethoxy]-5-fluoro-N-(oxetan-2-ylmethyl)benzamide] | < 10 | < 10
CC1(C)CCC(NC(=O)C(C)(C)Oc2ccc(F)cc2C(=O)NCC2CCO2)CO1 (stereo not drawn) [Compound 39, 2-[2-[(6,6-dimethyltetrahydropyran-3-yl)amino]-1,1-dimethyl-2-oxo-ethoxy]-5-fluoro-N-(oxetan-2-ylmethyl)benzamide] | < 10 | < 10
CN(C)Cc1ccc(NC(=O)C(C)(C)Oc2ccccc2C(=O)NCC2CCCO2)cc1 (stereo not drawn) [Compound 34, 2-(2-(4-((dimethylamino)methyl)phenylcarbamoyl)propan-2-yloxy)-N-((tetrahydrofuran-2-yl)methyl)benzamide] | < 10 | < 10
CN(CC1CCO1)C(=O)c1cc(F)ccc1OC(C)(C)C(=O)NC1CCOCC1 (stereo not drawn) [Compound 23, 2-(2-(tetrahydro-2H-pyran-4-ylcarbamoyl)propan-2-yloxy)-5-fluoro-N-methyl-N-((oxetan-2-yl)methyl)benzamide] | < 10 | < 10
O=C(Nc1ccc(OC(F)(F)F)cc1)c1nc2cc(F)cc(C(=O)NCC3CCO3)c2o1 (stereo not drawn) [Compound 22, 5-fluoro-N7-((oxetan-2-yl)methyl)-N2-(4-(trifluoromethoxy)phenyl)benzo[d]oxazole-2,7-dicarboxamide] | < 10 | < 10
CN(C)Cc1ccc(NC(=O)c2nc3cccc(C(=O)NCC4CCCO4)c3o2)cc1 (stereo not drawn) [Compound 9, N2-(4-((dimethylamino)methyl)phenyl)-N7-((tetrahydrofuran-2-yl)methyl)benzo[d]oxazole-2,7-dicarboxamide] | < 10 | < 10
CN1CCC(NC(=O)C(C)(C)Oc2ccc(F)cc2C(=O)NCC2CCO2)C(F)(F)C1 (stereo not drawn) [Compound 24, 2-(2-(3,3-difluoro-1-methylpiperidin-4-ylcarbamoyl)propan-2-yloxy)-5-fluoro-N-((oxetan-2-yl)methyl)benzamide] | < 10 | < 10
COc1ccc(NC(=O)N2Cc3cccc(C(=O)NCC4CCO4)c3C2)cc1 (stereo not drawn) [Compound 30, N2-(4-methoxyphenyl)-N4-((oxetan-2-yl)methyl)isoindoline-2,4-dicarboxamide] | < 10 | < 10
COc1ccc2[nH]c(COc3ccccc3C(=O)NCC3CCCO3)nc2c1 (stereo not drawn) [Compound 12, 2-((5-methoxy-1H-benzo[d]imidazol-2-yl)methoxy)-N-((tetrahydrofuran-2-yl)methyl)benzamide] | < 10 | < 10
CN(CC1CCCO1)C(=O)c1ccccc1OCC(=O)Nc1ccc(Br)cc1 (stereo not drawn) [Compound 1, 2-((4-bromophenylcarbamoyl)methoxy)-N-((tetrahydrofuran-2-yl)methyl)-N-methylbenzamide] | < 10 | < 10
O=C(Nc1ccc(CN2CCOCC2)cc1)c1nc2cccc(C(=O)NCC3CCO3)c2o1 (stereo not drawn) [Compound 16, N2-[4-(morpholinomethyl)phenyl]-N7-(oxetan-2-ylmethyl)-1,3-benzoxazole-2,7-dicarboxamide] | < 10 | –
CC(C)(Oc1ccccc1C(=O)NCC1CCCO1)C(=O)NC1CCCCC1 (stereo not drawn) [Compound 36, 2-[2-(cyclohexylamino)-1,1-dimethyl-2-oxo-ethoxy]-N-(tetrahydrofuran-2-ylmethyl)benzamide] | < 10 | < 10
O=C(Nc1ccc(OCF)cc1)c1nc2cc(F)cc(C(=O)NCC3CCO3)c2o1 (stereo not drawn) [Compound 47, 5-fluoro-N2-[4-(fluoromethoxy)phenyl]-N7-(oxetan-2-ylmethyl)-1,3-benzoxazole-2,7-dicarboxamid] | < 10 | < 10
O=C(NCC1CCO1)c1cccc2c1CN(C(=O)NC1CCC(F)(F)CC1)C2 (stereo not drawn) [Compound 41, N2-(4,4-difluorocyclohexyl)-N4-(oxetan-2-ylmethyl)isoindoline-2,4-dicarboxamide] | < 10 | < 10
CNc1ccc(NC(=O)c2nc3cc(F)cc(C(=O)NCC4CCO4)c3o2)cc1 (stereo not drawn) [Compound 44, 5-fluoro-N2-(4-(methylamino)phenyl)-N7-(oxetan-2-ylmethyl)benzo[d]oxazole-2,7-dicarboxamide] | < 10 | < 10
COc1ccc(NC(=O)Cc2nnc(NCC3CCCO3)c3ccccc23)cc1 (stereo not drawn) [Compound 11, 2-(1-((tetrahydrofuran-2-yl)methylamino)phthalazin-4-yl)-N-(4-methoxyphenyl)acetamide] | < 10 | < 10
CC(C)(Oc1ccccc1C(=O)NCC1CCO1)C(=O)NC1CCN(CC(F)F)CC1 (stereo not drawn) [Compound 17, 2-[2-[[1-(2,2-difluoroethyl)-4-piperidyl]amino]-1,1-dimethyl-2-oxo-ethoxy]-N-(oxetan-2-ylmethyl)benzamide] | < 10 | < 10
COc1ccc(NC(=O)c2nc3cc(F)cc(C(=O)NCC4CCO4)c3o2)cc1F (stereo not drawn) [Compound 14, 5-fluoro-N2-(3-fluoro-4-methoxy-phenyl)-N7-(oxetan-2-ylmethyl)-1,3-benzoxazole-2,7-dicarboxamide] | < 10 | –
O=C(Nc1ccc(Br)cc1)c1cc2cccc(C(=O)NCC3CCCO3)c2o1 (stereo not drawn) [Compound 3, N2-(4-bromophenyl)-N7-((tetrahydrofuran-2-yl)methyl)benzofuran-2,7-dicarboxamide] | < 10 | < 10
COc1ccc(NC(=O)c2cc3cccc(C(=O)NCC4CCCO4)c3o2)cc1 (stereo not drawn) [Compound 5, N7-((tetrahydrofuran-2-yl)methyl)-N2-(4-methoxyphenyl)benzofuran-2,7-dicarboxamide] | < 10 | < 10
O=C(NCC1CCO1)c1cccc2c1CN(C(=O)Nc1ccc(C(F)(F)F)cc1)C2 (stereo not drawn) [Compound 40, N4-(oxetan-2-ylmethyl)-N2-[4-(trifluoromethyl)phenyl]isoindoline-2,4-dicarboxamide] | < 10 | < 10
COc1ccc(NC(=O)c2nc3cc(F)cc(C(=O)NCC4CCCO4)c3o2)cc1 (stereo not drawn) [Compound 48, 5-fluoro-N2-(4-methoxyphenyl)-N7-(tetrahydrofuran-2-ylmethyl)-1,3-benzoxazole-2,7-dicarboxamide] | < 10 | < 10
COc1ccc(NC(=O)c2ncc(CC(=O)NCC3CCO3)o2)cc1 (stereo not drawn) [Compound 50, N-(4-methoxyphenyl)-5-(2-((oxetan-2-ylmethyl)amino)-2-oxoethyl)oxazole-2-carboxamide] | < 10 | < 10
COc1ccc(NC(=O)c2nc3c(F)ccc(C(=O)NCC4CCO4)c3o2)cc1 (stereo not drawn) [Compound 15, 4-fluoro-N2-(4-methoxyphenyl)-N7-(oxetan-2-ylmethyl)-1,3-benzoxazole-2,7-dicarboxamide] | < 10 | –
O=C(NC1CCC(F)(F)CC1)c1nc2cc(F)cc(C(=O)NCC3CCO3)c2o1 (stereo not drawn) [Compound 28, N2-(4,4-difluorocyclohexyl)-5-fluoro-N7-(oxetan-2-ylmethyl)benzo[d]oxazole-2,7-dicarboxamide] | 10 to 100 | < 10
COc1c(C(=O)Nc2ccc(Br)cc2)oc2c(C(=O)NCC3CCCO3)cccc12 (stereo not drawn) [Compound 6, N2-(4-bromophenyl)-N7-((tetrahydrofuran-2-yl)methyl)-3-methoxybenzofuran-2,7-dicarboxamide] | < 10 | < 10
O=C(NC1CCN(CC(F)(F)F)CC1)c1nc2cc(F)cc(C(=O)NCC3CCO3)c2o1 (stereo not drawn) [Compound 29, 5-fluoro-N7-(oxetan-2-ylmethyl)-N2-(1-(2,2,2-trifluoroethyl)piperidin-4-yl)benzo[d]oxazole-2,7-dicarboxamide] | 10 to 100 | –
